Measurements as given in US9771430B2, “Method of treating a metabolic disorder induced by obesity in a subject in need thereof by administering MK2/3 inhibitors” (THE TRUSTEES OF COLUMBIA UNIVERSITY IN THE CITY OF NEW YORK, priority 2011, dated 2017).

What was measured:
CaMKII = assay type: cell-based, mouse
Description: FIG. 1A. CaMKII enzyme activity was assayed in triplicate wells of primary mouse HCs stimulated with 100 nM glucagon (Gluc) or vehicle control (Veh) for the indicated times (*P<0.05 and **P<0.01 vs. Veh; mean±S.E.M.). FIGS. 1B-1J. Extracts of HCs or liver were probed for phospho-CaMKII, total CaMKII, and β-actin by immunoblot assay. FIG. 1B. HCs were incubated with […] glucagon for the indicated times; FIG. 1C. Glucagon was added to HCs that were pre-treated for 1 h with vehicle control (Veh) or 5 μM BAPTA-AM; FIG. 1D. Glucagon was added to HCs that were pre-treated with 0.5 μM xestospongin (XesC) or to HCs from Ip3r1fl/fl mice transduced with adeno-LacZ control or adeno-Cre (bar graph=Ip3r1 mRNA levels); FIG. 1E. Glucagon was added to HCs that were pre-treated for 1 h with vehicle control (Veh) or 10 μM H89. FIG. 1F. […] FIGS. 1G-1J. In vivo experiments. In FIG. 1G, mice were treated for 30 min with 200 μg kg−1 body weight of glucagon i.p., and in FIG. 1H, mice were pre-treated with 10 pmol g−1 xestospongin C or vehicle control i.p. 4 days prior to glucagon treatment. In FIGS. 1I-1J, mice were fed ad libitum or fasted for 12 h, or fasted for 12 h and then re-fed for 4 h.
Total RNA was extracted from hepatocytes using the RNeasy kit (Qiagen). cDNA was synthesized from 2 μg total RNA using oligo (dT) and Superscript II (Invitrogen). Real-time qPCR analysis and western blotting were performed as previously described (Timmins et al., 2009). Nuclear extraction from liver was performed using the Nuclear Extraction Kit from Panomics according to the manufacturer's instructions.
Immunoblot and RT-qPCR assays were performed as previously described (Timmins et al., 2009). Total RNA was extracted from HCs using the RNeasy kit (Qiagen). cDNA was synthesized from 2 μg total RNA using oligo (dT) and Superscript II (Invitrogen). Nuclear extraction from liver was performed using the Nuclear Extraction Kit from Panomics according to the manufacturer's instructions.

cytosolic free calcium = assay: Calcium mobilization in primary hepatocytes (Fura-2 imaging); assay type: cell-based, mouse
Description: Mouse primary hepatocytes were plated on glass coverslips and loaded with 5 μM Fura-2 acetoxymethyl ester (Molecular Probes) in the presence of 0.025% (w/v) pluronic F127 (Sigma-Aldrich) in Media 199 (Mediatech) for 30 minutes. […] The ratio of fluorescence intensity at the two excitation wavelengths was calculated after subtracting background fluorescence. [Ca2+]I (cytosolic free calcium concentration) was calculated using a Fura-2 calcium imaging calibration kit (Invitrogen). Images were collected and analyzed using the MetaFluor software package (Universal Imaging Corp.). Graphs represent average responses from groups of 30-40 individual cells from representative single experiments. Bar graphs represent average responses (fold over average baseline) from 150-200 cells per condition. All experiments were repeated at least three times with similar results.

Row | Molecule | glucagon-induced CaMKII phosphorylation (CaMKII; HCs pre-treated with inhibitor, then glucagon) | cytosolic calcium mobilization in response to glucagon (and forskolin) (cytosolic free calcium; co-/pre-treatment with inhibitor) | phospho-CaMKII (CaMKII; HCs treated with agonist) | cellular free calcium (cytosolic free calcium; exposure of primary hepatocytes to glucagon)
1 | C1CCC[C@H]2CCCN3CC[C@@H](CCCCCC[C@@H]4CCCN5CC[C@@H](CC1)O[C@@H]45)O[C@@H]23 [Xestospongin C] | significant decrease | disrupted |  | 
2 | glucagon: hormone used to stimulate hepatocytes and mice |  |  | induced | rapid increase
